# Experimental data from paper PMC6219560, “An Electroencephalography Bioassay for Preclinical Testing of Analgesic Efficacy” (Scientific Reports, 2018).
# Read-outs that look alike come from different tables or passages of the source.
# Tests used:
# rats with CCI = test system: rats with CCI; set-up: method as in PMID 23489258; conditions: single doses (i.p.), rats with CCI ref 38; cited from earlier work
# [1] = test system: rat model of neuropathic pain (CCI); test: EEG theta power over primary somatosensory cortex in awake rats with CCI; assay type: in vivo; conditions: for Longitudinal effects on theta power and PWL: single dose 10 mg/kg, n=4
# Experimental: These procedures were performed under anesthesia (isoflurane, 2–3.5%). The head was fixed in a stereotaxic apparatus, and skull was exposed after a small skin incision. A stainless steel screw electrode (0–80 ga 1/8 inch, impedance = 0.6 Ω; component Supply Company, Fort Meade, FL) was placed over intact skull (i.e. epicranially) corresponding to primary somatosensory cortex or S1 contralateral to nerve injury (Bregma −2, 2 mm lateral). Minimal craniotomies were used to place 3 stabilization screws (corresponding to Bregma +1.4, 2 mm bilaterally and Bregma −4.8 mm, midline). The EEG screw was threaded with a silver wire and attached to a female miniature pin connector (A&M Systems, Sequim, WA). All screws were anchored to the skull chronically using dental acrylic (Fig. 1B). Signal reference was provided by a silver wire permanently threaded to the skin at the back of the neck.
# (§1) The sciatic nerve was exposed unilaterally after skin incision at the mid-thigh level and blunt dissection of the biceps under deep anesthesia (isoflurane, 3%). Four chromic gut ligatures were tied loosely around the nerve 1 mm apart, and the overlying muscles and skin were closed in layers with 4–0 Ethilon sutures. A minor modification was introduced, consisting of loose ligatures, to minimize nerve damage and deafferentation. […] For CCI sham surgery, the sciatic nerve was similarly exposed but not ligated.
# Pin connectors from EEG electrode was tethered to preamplifier headstage leading to a multichannel amplifier (iso-DAM8A; WPI Inc, Sarasota, FL). EEG waveforms were amplified (DAM80; World Precision Instruments, Sarasota, FL). […] Rats were allowed to move freely during EEG recording in Plexiglas chambers. After 15 minutes of acclimation, EEG recording was performed. Each EEG recording session was 3 to 5 minutes per animal. […] Only data during awake resting periods (defined as alertness but idle with no locomotor behavior) were further analyzed. Potentials generated due to vigorous myogenic activity (such as scratching) were excluded from analysis. These artifacts can be easily identified on the basis of monitoring the animal’s behavior, voltage amplitude, and spectral frequency typically >30 Hz, and they were further corroborated using an automated artifact detection algorithm recently developed in our laboratory (Supplemental Fig. 3)[59].
# Fast Fourier transform was used to convert EEG waveform from the time domain to the frequency domain. Power values were generated in 27 frequency bins between 3 and 30 Hz. Awake resting periods were selected and Fast Fourier transformed, then average PSD was calculated. Mean PSD theta was computed between 4 and 8 Hz (Fig. 1C). Each ‘period’ was a continuous interval between 7 and 20 seconds, and 3–5 periods were averaged to obtain one value for mean theta per condition.
# (§2) Values regarding theta power and PWL are reported as mean ± SEM and then converted to ratio relative to naive or CCI values for standardized representation of the data. One sample t-test was used for comparison between naïve and CCI, and paired t-test was used for comparison between CCI and after treatment in the same animals, respectively. Values regarding drug plasma concentration are reported as geomean (% of covariance) or range. Correlation analysis was used to compare EEG with PWL values. A P value < 0.05 was considered statistically significant and denoted by asterisk (*) in figures.
# [2] = cited from earlier work
# [3] = Pharmacokinetics (PK) study: drug plasma concentration in rats by LC-MS/MS; assay type: in vivo, rat; conditions: for concentration at 30 min: geomean (% coefficient of variation), n = 3
# Experimental: Rats (n = 3 per group) were intraperitoneally treated either with 3 or 100 mg/kg of pregabalin, or orally either with 1 or 10 mg/kg of EMA401, or 80 mg/kg of minocycline. At 0.5, 1, and 2 hours after treatment, approximately 150 µL of blood was collected from the jugular vein using a heparinized syringe with a needle. Blood samples were then centrifuged at 1700 g at 4 °C for 10 minutes. Plasma samples were then separated and stored at −20 °C until analysis. Five or 10 μL of plasma samples were diluted with 300 μL of deproteinization solution containing internal standards (5 nM buspirone, 20 nM tolbutamide, 10 nM reserpine in acetonitorile/methanol = 9: 1) and shaken for 5 minutes at room temperature, and centrifuged at 1000 g for 15 minutes. Then, the supernatant was analyzed by LC-MS/MS (Xevo TQ-S Tandem Quadrupole Mass Spectrometry, Waters) for quantification of pregabalin. Data analysis were performed with MassLynx Mass Spectometry Software and TargetLynx Application manager (Waters).
# [4] = test system: rat model of neuropathic pain (CCI); test: Thermal hyperalgesia: paw withdrawal latency (PWL) in rats with CCI; assay type: in vivo
# Source text: as §1, with “deafferentation. Rats with this slightly modified CCI procedure gradually develop typical signs of sensory hypersensitivity associated with neuropathic pain, such as guarding the affected hind paw and thermal hypersensitivity.” for “deafferentation.”
# EEG recording was performed first for ~10 min during resting states (no stimulation). The rat was then untethered from the EEG leads and placed in the behavioral apparatus for 15 min acclimation, followed by 5 min PWL testing. Thermal sensitivity of the hindpaw was assessed by measuring the latency of the withdrawal reflex in response to a radiant heat source (Paw withdrawal stimulator, Department of Anesthesiology, University of California, SD). A radiant heat source (4.7 A) was applied to the plantar surface of the hind paw. Paw withdrawal latencies (PWL) in response to 4 thermal stimulations were averaged for each paw. Stimulations to each paw were separated by at least 2 minutes intervals.
# as §2
# [5] = cited from earlier work; for Plasma concentration in rat: mean (% coefficient of variation) ref 29; for Plasma concentration in rat (% covariance): mean ref Lau et al.
# pain patients = conditions: equivalent human dose High (rat 30 mg/kg i.p.); cited from earlier work
# [6] = 10 mg/kg p.o., single administration, d14 after CCI, 0.5 hr, n = 6
# [7] = 80 mg/kg p.o., single administration at d14 after CCI, n = 5
smiles,measurement,setting,value
Cc1cc(Cn2cnc3c2CC(C(=O)O)N(C(=O)C(c2ccccc2)c2ccccc2)C3)ccc1N(C)C (stereo not shown) [EMA200],Anti-allodynic effects,rats with CCI,dose-dependent anti-allodynic effects
COc1ccc2c(c1OCc1ccccc1)C[C@@H](C(=O)O)N(C(=O)C(c1ccccc1)c1ccccc1)C2 [EMA400],Anti-allodynic effects,rats with CCI,dose-dependent anti-allodynic effects
COc1ccc2c(c1OCc1ccccc1)C[C@@H](C(=O)O)N(C(=O)C(c1ccccc1)c1ccccc1)C2 [EMA401],Theta power relative to CCI,"[1]; 10 mg/kg p.o. daily starting d7 after CCI, day 7, n = 6",0.76 ± 0.07
same,Theta power relative to CCI,"[1]; 10 mg/kg p.o. daily starting d7 after CCI, day 11, n = 6",0.77 ± 0.08
same,Theta power relative to CCI,"[1]; 10 mg/kg p.o. daily starting d7 after CCI, day 14, n = 6",0.87 ± 0.12
same,Theta power relative to CCI,[1]; [6],0.71 ± 0.13
same,Longitudinal effects on theta power and PWL,"[1]; CCI d7, 30 min after administration",analgesic effects
same,Longitudinal effects on theta power and PWL,"[1]; CCI d7, 2 hours after administration",tendency for reversal
same,Corresponding plasma concentration in human: Cmax,"[2]; 200 mg/day, mean (% covariance) ref Rice et al.",Therapeutic dose Similar to Cmax of 200 mg/day: 1.01 (65) mg/mL*b [Rice et al.]
same,"Plasma concentration, clinical data",[2]; human ref 18,1.01 (65) μg/mL
same,Distribution,"[3]; rat, in vivo",peripherally restricted
same,Exposure after daily administration,"[3]; rat, in vivo, po",not cumulative
same,PWL relative to CCI,"[4]; 10 mg/kg p.o. daily starting d7 after CCI, day 7",1.60 ± 0.19
same,PWL relative to CCI,"[4]; 10 mg/kg p.o. daily starting d7 after CCI, day 11",2.13 ± 0.28
same,PWL relative to CCI,"[4]; 10 mg/kg p.o. daily starting d7 after CCI, day 14",2.27 ± 0.30
same,PWL relative to CCI,[4]; [6],1.26 ± 0.11
"CN(C)c1ccc(O)c2c1C[C@H]1C[C@H]3[C@H](N(C)C)C(O)=C(C(N)=O)C(=O)[C@@]3(O)C(O)=C1C2=O [Minocycline, minocycline]",Theta power relative to CCI,"[1]; 80 mg/kg p.o. daily starting d7 CCI, day 11, n = 7",0.95 ± 0.11
same,Theta power relative to CCI,"[1]; 80 mg/kg p.o. daily starting d7 CCI, day 14, n = 5",1.37 ± 0.45
same,Theta power relative to CCI,"[1]; 80 mg/kg p.o., d7 after CCI (first of daily doses), n = 7",0.71 ± 0.06
same,Theta power relative to CCI,[1]; [7],0.96 ± 0.13
same,Corresponding plasma concentration in human: clinical dose,"[2]; 200 mg/day, range ref Sumitani et al.",Therapeutic dose (inconclusive) Higher than clinical (200 mg/day) dose: 3.19–4.59 mg/mL*a [Sumitani et al.]
same,PWL relative to CCI,"[4]; 80 mg/kg p.o. daily treatment starting d7 CCI, day 7",0.91 ± 0.05
same,PWL relative to CCI,"[4]; 80 mg/kg p.o. daily treatment starting d7 CCI, day 10",1.00 ± 0.08
same,PWL relative to CCI,"[4]; 80 mg/kg p.o. daily treatment starting d7 CCI, day 14",0.94 ± 0.04
same,PWL relative to CCI,[4]; [7],1.08 ± 0.10
"CC(C)C[C@H](CN)CC(=O)O [Pregabalin, pregabalin]",Plasma concentration in rat,"[5]; 10 mg/kg i.p., 30 min",11.3 (4.9) μg/mL
same,Plasma concentration in rat (% covariance),"[5]; 10 mg/kg, observation time 30 min",11.3 (4.9)*b mg/mL
same,Plasma concentration in rat,[5]; 30 mg/kg i.p.,33.0 (5.4) μg/mL
same,Plasma concentration in rat (% covariance),[5]; 30 mg/kg,33.0 (5.4)*b mg/mL
same,Theta power relative to CCI,"[1]; 3 mg/kg i.p., single dose, d14 after CCI, 0.5 h, mean ± SEM ratio, n = 7",0.91 ± 0.11
same,Theta power relative to CCI,"[1]; 10 mg/kg i.p., single dose, d14 after CCI, 0.5 h, mean ± SEM ratio, n = 7",0.83 ± 0.12
same,EEG efficacy (θ power),"[1]; 30 mg/kg (i.p.), pain phase Late",Side effects
same,Theta power relative to CCI,"[1]; 30 mg/kg i.p., single dose, d14 after CCI, 0.5 h, mean ± SEM ratio, n = 7",1.24 ± 0.29
same,Cmax in humans,[2]; 150 mg/day ref 31,3.18 (21) μg/mL
same,Corresponding plasma concentration in human: Cmax,[2]; 150 mg/day ref Chew et al.,Sub-therapeutic dose Similar to Cmax of 150 mg/day: 3.18 (21) mg/mL [Chew et al.]
same,Cmax in humans,[2]; 300 mg/day ref 31,6.39 (20) μg/mL
same,Cmax in humans,[2]; 600 mg/day ref 31,11.4 (17) μg/mL
same,Corresponding plasma concentration in human: steady state level,"[2]; 600 mg/day, range ref Dworkin et al.",Supra-therapeutic dose Slightly higher than steady state level of 600 mg/day: 0.244–18.6 mg/mL*a [Dworkin et al.]
same,Steady state level in humans,"[2]; 600 mg/day, represented as range ref 33",0.244 to 18.6 µg/mL
same,Linearity of plasma concentration at 30 min,"[3]; doses of 3 and 100 mg/kg i.p., compared with previous report (10 and 30 mg/kg)",good linearity
same,concentration at 30 min,"[3]; rat, in vivo, 3 mg/kg i.p.",3.29 µg/mL
same,concentration at 30 min,"[3]; rat, in vivo, 100 mg/kg i.p.",99.3 µg/mL
same,Clinical efficacy (VAS),pain patients,Side effects
same,PWL relative to CCI,"[4]; 3 mg/kg i.p., single dose, d14 after CCI, 0.5 h, mean ± SEM ratio",1.42 ± 0.10
same,PWL relative to CCI,"[4]; 10 mg/kg i.p., single dose, d14 after CCI, 0.5 h, mean ± SEM ratio",1.54 ± 0.08
same,PWL relative to CCI,"[4]; 30 mg/kg i.p., single dose, d14 after CCI, 0.5 h, mean ± SEM ratio",1.47 ± 0.14
